Laboratory results reported in patent US11292783B2, “Substituted 1,2,3,4-tetrahydroisoquinolines as kappa opioid antagonists” (Research Triangle Institute, priority 2016, dated 2022).
Read-outs that look alike come from different tables or passages of the source.

Legend:
Assay type in all cases: biochemical
μ opioid receptor = target: T1, μ opioid receptor (Homo sapiens, UniProt P35372); experiment: Inhibition of DAMGO-stimulated [35S]GTPγS binding
T1 construct: expressed in transfected cells

κ opioid receptor = target: T2, κ opioid receptor (Homo sapiens, UniProt P41145); experiment: Inhibition of U69,593-stimulated [35S]GTPγS binding; settings: for δ/κ (selectivity for κ relative to δ): ratio of Ke values δ/κ; for δ/κ (selectivity for κ relative to δ) / μ/κ (selectivity for κ relative to μ): fold; for μ/κ (selectivity for κ relative to μ): ratio of Ke values μ/κ
T2 construct: expressed in transfected cells

δ opioid receptor = target: T3, δ opioid receptor (Homo sapiens, UniProt P41143); experiment: Inhibition of DPDPE-stimulated [35S]GTPγS binding
T3 construct: expressed in transfected cells

[1] = cloned human μ receptor, agonist DAMGO, [35S]GTPγS binding, read-out: μ, DAMGO Ke
[2] = cloned human κ receptor, agonist U69,593, [35S]GTPγS binding, read-out: κ, U69,593 Ke
[3] = cloned human δ receptor, agonist DPDPE, [35S]GTPγS binding, read-out: δ, DPDPE Ke

T1 sequence (P35372 whole entry): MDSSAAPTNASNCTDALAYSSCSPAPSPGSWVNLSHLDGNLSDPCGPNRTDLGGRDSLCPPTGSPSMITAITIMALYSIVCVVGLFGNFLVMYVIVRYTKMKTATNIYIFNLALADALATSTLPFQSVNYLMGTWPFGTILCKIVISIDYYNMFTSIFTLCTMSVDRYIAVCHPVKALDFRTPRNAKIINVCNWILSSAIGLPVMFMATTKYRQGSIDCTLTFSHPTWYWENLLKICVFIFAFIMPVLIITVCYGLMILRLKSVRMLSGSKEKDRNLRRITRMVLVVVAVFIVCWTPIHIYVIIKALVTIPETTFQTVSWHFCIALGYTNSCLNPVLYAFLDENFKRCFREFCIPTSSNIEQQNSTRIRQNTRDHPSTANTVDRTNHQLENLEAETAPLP
T2 sequence (P41145 whole entry): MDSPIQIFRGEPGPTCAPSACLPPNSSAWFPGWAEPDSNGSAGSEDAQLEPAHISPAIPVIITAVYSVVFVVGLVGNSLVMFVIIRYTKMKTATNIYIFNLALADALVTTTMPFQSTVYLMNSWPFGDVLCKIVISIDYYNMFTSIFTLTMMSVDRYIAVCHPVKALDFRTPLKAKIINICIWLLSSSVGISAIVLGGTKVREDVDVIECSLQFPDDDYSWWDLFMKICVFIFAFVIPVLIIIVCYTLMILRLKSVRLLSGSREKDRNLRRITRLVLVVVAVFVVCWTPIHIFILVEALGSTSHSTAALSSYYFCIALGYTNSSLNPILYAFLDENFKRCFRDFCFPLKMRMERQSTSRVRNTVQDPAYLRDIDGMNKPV
T3 sequence (P41143 whole entry): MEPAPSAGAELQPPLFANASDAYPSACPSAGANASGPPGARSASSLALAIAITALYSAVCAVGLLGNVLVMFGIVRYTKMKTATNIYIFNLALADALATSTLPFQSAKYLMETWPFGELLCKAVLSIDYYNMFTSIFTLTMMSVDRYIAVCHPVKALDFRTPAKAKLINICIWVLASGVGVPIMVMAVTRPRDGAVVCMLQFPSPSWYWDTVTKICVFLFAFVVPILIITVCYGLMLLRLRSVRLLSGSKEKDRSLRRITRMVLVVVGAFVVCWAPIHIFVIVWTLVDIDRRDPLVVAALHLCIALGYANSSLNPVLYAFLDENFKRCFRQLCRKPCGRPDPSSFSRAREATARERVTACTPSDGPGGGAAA

| Kb (μ opioid receptor; [1]) | Kb (κ opioid receptor; [2]) | δ/κ (selectivity for κ relative to δ) (κ opioid receptor) | μ/κ (selectivity for κ relative to μ) (κ opioid receptor) | SMILES | Kb (δ opioid receptor; [3]) | other results |
| --- | --- | --- | --- | --- | --- | --- |
| 915 ± 303 nM | 98.8 ± 28 nM | >333 | 9 | CC(C)[C@@H](CN1CCN(C)CC1)NC(=O)[C@H]1Cc2ccc(O)cc2CN1 [Compound 19, (3R)-7-Hydroxy-N-{(1S)-2-methyl-1-[(4-methylpiperizin-1-yl)methyl]propyl}-1,2,3,4-tetrahydroisoquinoline-3-carboxamide] | – | – |
| 647 ± 150 nM | 12.7 ± 3.1 nM | >236 | 51 | CC(C)[C@@H](CN1CCC(C#N)CC1)NC(=O)[C@H]1Cc2ccc(O)cc2CN1 [Compound 39, (3R)—N-{(1S)-1-[(4-Cyanopiperidin-1-yl)methyl]-2-methylprolyl}-7-hydroxy-1,2,3,4-tetrahydroisoquinoline-3-carboxamide] | – | – |
| 198 ± 48 nM | 6.53 ± 1.8 nM | >459 | 30 | COC1CCN(C[C@@H](NC(=O)[C@H]2Cc3ccc(O)cc3CN2)C(C)C)CC1 [Compound 13, (3R)-7-Hydroxy-N-{(1S)-2-methyl-1-[(4-methoxypiperidin-1-yl)methyl]propyl}-1,2,3,4-tetrahydroisoquinoline-3-carboxamide] | – | – |
| 74.8 ± 23 nM | 2.48 ± 0.7 nM | 1004 | 30 | CCC1CCN(C[C@@H](NC(=O)[C@H]2Cc3ccc(O)cc3CN2)C(C)C)CC1 [Compound 24, (3R)—N-{(1S)-1-[(4-Ethylpiperidin-1-yl)methyl]-2-methylpropyl}-7-hydroxy-1,2,3,4-tetrahydroisoquinoline-3-carboxamide] | 2490 ± 620 nM | – |
| 344 ± 100 nM | – | – | – | CC(C)[C@@H](CC1CCCC1)NC(=O)[C@H]1Cc2ccc(O)cc2CN1 [Compound 40, (3R)—N-[(1R)-1-(Cyclopentylmethyl)-2-methylpropyl]-7-hydroxy-1,2,3,4-tetrahydroisoquinoline-3-carboxamide] | 1570 ± 380 nM | – |
| 44.9 ± 11 nM | 15.1 ± 4.2 nM | 199 | 3 | CC(C)[C@@H](CN1CCCCC1C)NC(=O)[C@H]1Cc2ccc(O)cc2CN1 (stereo partly drawn) [Compound 12, (3R)-7-Hydroxy-N-{(1S)-2-methyl-1-[(2-methylpiperidin-1-yl)methyl]propyl}-1,2,3,4-tetrahydroisoquinoline-3-carboxamide] | – | – |
| 604 ± 83 nM | 11.8 ± 3 nM | >254 | 51 | CC(C)[C@@H](CN1CCC(F)(F)CC1)NC(=O)[C@H]1Cc2ccc(O)cc2CN1 [Compound 54, (3R)—N-{[(1S)-1-[4,4-Difluoropiperidin-1-yl]methyl]-2-methylpropyl}-7-hydroxy-1,2,3,4-tetrahydroisoquinoline-3-carboxamide] | – | – |
| 129 ± 26 nM | 3.22 ± 0.78 nM | 932 | 43 | CC(C)[C@@H](CN1CCC(C(N)=O)CC1)NC(=O)[C@H]1Cc2ccc(O)cc2CN1 [Compound 22] | – | – |
| 67.9 ± 12 nM | 4.69 ± 0.29 nM | >640 | 14 | CC(C)[C@@H](CN1CCC(C(F)(F)F)CC1)NC(=O)[C@H]1Cc2ccc(O)cc2CN1 [Compound 14, (3R)-7-Hydroxy-N-[(1S)-2-methyl-1-{[4-(trifluoromethyl)piperidin-1-yl]methyl}propyl]-1,2,3,4-tetrahydroisoquinoline-3-carboxamide] | – | – |
| – | – | – | – | O=C(NCCc1ccccc1)[C@H]1Cc2ccc(O)cc2CN1 [Compound 56, (3R)-7-Hydroxy-N-(2-phenylethyl)-1,2,3,4-tetrahydroisoquinoline-3-carboxamide] | > 3000 nM | Kb (μ opioid receptor): 277 ± 77 nM |
| 318 ± 8.4 nM | 8.08 ± 1.2 nM | >371 | 39 | CC(C)[C@@H](CN1CCC(N(C)C)CC1)NC(=O)[C@H]1Cc2ccc(O)cc2CN1 [Compound 58, (3R)—N-[(1S)-1-{[4-(Dimethylamino)piperidin-1-yl]methyl}-2-methylpropyl]-7-hydroxy-1,2,3,4-tetrahydroisoquinoline-3-carboxamide] | – | – |
| – | – | – | – | CC(C)[C@@H](CN1CCCCC1)NC(=O)[C@H]1Cc2ccc(O)cc2CN1 [Compound 3, (3R)-7-Hydroxy-N-[(1S)-2-methyl-1-(piperidin-1-ylmethyl)propyl]-1,2,3,4-tetrahydroisoquinoline-3-carboxamide] | – | Kb (δ opioid receptor): > 3000 nM |
| – | 137 ± 24 nM | – | – | CC(C)CN(CC(C)C)C[C@@H](NC(=O)[C@H]1Cc2ccc(O)cc2CN1)C(C)C [Compound 10, (3R)—N-{(1S)-1-{[Bis(2-methylpropyl)amino]methyl}-2-methylpropyl]-7-hydroxy-1,2,3,4-tetrahydroisoquinoline-3-carboxamide] | – | – |
| 142 nM | 2.09 ± 0.42 nM | 405 | 68 | CC(C)[C@@H](CN1CCC(C)(C)CC1)NC(=O)[C@H]1Cc2ccc(O)cc2CN1 [Compound 9, (3R)—N-{(1S)-1-[(4,4-Dimethylpiperidin-1-yl)methyl]-2-methylpropyl}-7-hydroxy-1,2,3,4-tetrahydroisoquinoline-3-carboxamide] | 847 nM | – |
| – | 396 ± 140 nM | – | – | CC(C)[C@@H](CN1CCOCC1)NC(=O)[C@H]1Cc2ccc(O)cc2CN1 [Compound 5, (3R)-7-Hydroxy-N-[(1S)-2-methyl-1-(morpholin-4-ylmethyl)propyl]-1,2,3,4-tetrahydroisoquinoline-3-carboxamide] | – | – |

| SMILES | Kb (μ opioid receptor; [1]) | Kb (κ opioid receptor; [2]) | δ/κ (selectivity for κ relative to δ) (κ opioid receptor) | μ/κ (selectivity for κ relative to μ) (κ opioid receptor) | Kb (δ opioid receptor; [3]) | other results |
| --- | --- | --- | --- | --- | --- | --- |
| CC1CCN(C[C@H](C(C)C)N(C)C[C@H]2Cc3ccc(O)cc3CN2)CC1 [Compound 53, (3R)-3-[(Methyl{(1S)-2-methyl-1-[(4-methylpiperidin-1-yl)methyl]propyl}amino)methyl]-1,2,3,4-tetrahydroisoquinolin-7-ol] | – | 18.4 ± 2 nM | >163 | 35 | > 3000 nM | Kb (μ opioid receptor): 647 ± 150 nM |
| CC(C)[C@@H](CN1CCC(C(F)F)CC1)NC(=O)[C@H]1Cc2ccc(O)cc2CN1 [Compound 59, (3R)—N-[(1S)-1-{[4-(Difluoromethyl)piperidin-1-yl]methyl}-2-methylpropyl]-7-hydroxy-1,2,3,4-tetrahydroisoquinoline-3-carboxamide] | 70.9 ± 9.4 nM | 3.45 ± 1.2 nM | – | – | – | – |
| CC1CCC(C[C@@H](NC(=O)[C@H]2Cc3ccc(O)cc3CN2)C(C)C)CC1 (stereo partly drawn) [Compound 66, (3R)-7-Hydroxy-N-{(1R)-2-methyl-1-[(4-methylcyclohexyl)methyl]propyl}-1,2,3,4-tetrahydroisoquinoline-3-carboxamide] | 221 ± 41 nM | – | – | – | – | – |
| CCN(CC)C[C@@H](NC(=O)[C@H]1Cc2ccc(O)cc2CN1)C(C)C [Compound 11, (3R)—N-{(1S)-1-[(4,4-Diethylamino)methyl]-2-methylpropyl]-7-hydroxy-1,2,3,4-tetrahydroisoquinoline-3-carboxamide] | – | – | >72 | 16.5 | >3000 nM | μ, DAMGO Ke (μ opioid receptor; cloned human μ receptor, agonist DAMGO, [35S]GTPγS binding): 690 ± 110 nM; κ, U69,593 Ke (κ opioid receptor; cloned human κ receptor, agonist U69,593, [35S]GTPγS binding): 41.8 ± 12 nM |
| CC1CCN(C[C@H](C(C)C)N(C)C(=O)[C@H]2Cc3ccc(O)cc3CN2)CC1 [Compound 30, (3R)-7-Hydroxy-N-methyl-N-{(1S)-2-methyl-1-[(4-methylpiperidin-1-yl)methyl]propyl}-1,2,3,4-tetrahydroisoquinoline-3-carboxamide] | – | 88.4 ± 17 nM | 34 | 4.6 | > 3000 nM | Kb (μ opioid receptor): 406 ± 86 nM |
| CC(C)[C@@H](CO)NC(=O)[C@H]1Cc2ccc(O)cc2CN1 [Compound 4, (3R)-7-Hydroxy-N-[(1S)-1-(hydroxymethyl)-2-methylpropyl]-1,2,3,4-tetrahydroisoquinoline-3-carboxamide] | – | – | >76 | >76 | – | Kb (μ opioid receptor): > 3000 nM; Kb (δ opioid receptor): > 3000 nM; Kb (κ opioid receptor; κ, U69,593 Ke, cloned human κ receptor, agonist U69,593, [35S]GTPγS binding): 39.1 ± 3.8 nM |
